Assay results reported in PubChem BioAssay (NCI).
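Exposure lasted 48 hours, with cells grown in 96-well plates and compounds tested at five concentrations. GI50: concentration for 50% inhibition of growth. TGI denotes the concentration required for complete inhibition of growth.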

Experiments:
Experiment in all cases: NCI anticancer screen, dose series, 48 h
NCI/ADR-RES ovarian = system: NCI/ADR-RES ovarian
SK-MEL-5 melanoma = system: SK-MEL-5 melanoma
SR leukemia = system: SR leukemia
BT-549 breast = system: BT-549 breast
RXF 393 renal = system: RXF 393 renal
EKVX NSCLC = system: EKVX NSCLC
K-562 leukemia = system: K-562 leukemia
HOP-92 NSCLC = system: HOP-92 NSCLC
SK-MEL-28 melanoma = system: SK-MEL-28 melanoma
KM12 colon = system: KM12 colon
HS 578T breast = system: HS 578T breast
M14 melanoma = system: M14 melanoma
HCT-116 colon = system: HCT-116 colon
MOLT-4 leukemia = system: MOLT-4 leukemia
LOX IMVI melanoma = system: LOX IMVI melanoma
CAKI-1 renal = system: CAKI-1 renal
NCI-H23 lung = system: NCI-H23 lung
PC-3 prostate = system: PC-3 prostate
HOP-62 NSCLC = system: HOP-62 NSCLC
SK-MEL-2 melanoma = system: SK-MEL-2 melanoma
UO-31 renal = system: UO-31 renal
MALME-3M melanoma = system: MALME-3M melanoma
ACHN renal = system: ACHN renal
NCI-H226 lung = system: NCI-H226 lung
OVCAR-8 ovarian = system: OVCAR-8 ovarian
SF-268 CNS = system: SF-268 CNS
NCI-H522 lung = system: NCI-H522 lung
MCF7 breast = system: MCF7 breast
HL-60(TB) leukemia = system: HL-60(TB) leukemia
SNB-19 CNS = system: SNB-19 CNS
RPMI-8226 leukemia = system: RPMI-8226 leukemia
U251 CNS = system: U251 CNS
SF-295 CNS = system: SF-295 CNS
SW-620 colon = system: SW-620 colon
HT29 colon = system: HT29 colon
HCT-15 colon = system: HCT-15 colon
A498 renal = system: A498 renal
UACC-257 melanoma = system: UACC-257 melanoma
DU-145 prostate = system: DU-145 prostate
NCI-H460 lung = system: NCI-H460 lung
SF-539 CNS = system: SF-539 CNS
A549 NSCLC = system: A549 NSCLC
UACC-62 melanoma = system: UACC-62 melanoma
COLO 205 colon = system: COLO 205 colon
MDA-MB-435 = system: MDA-MB-435
TK-10 renal = system: TK-10 renal
OVCAR-4 ovarian = system: OVCAR-4 ovarian
OVCAR-3 ovarian = system: OVCAR-3 ovarian
SK-OV-3 ovarian = system: SK-OV-3 ovarian
T-47D breast = system: T-47D breast
OVCAR-5 ovarian = system: OVCAR-5 ovarian
SNB-75 CNS = system: SNB-75 CNS
IGROV1 ovarian = system: IGROV1 ovarian
MDA-MB-231 breast = system: MDA-MB-231 breast
786-0 renal = system: 786-0 renal
SN12C renal = system: SN12C renal

## Cc1cnc2n1S(=O)(=O)c1cc(C(=O)Nc3cccc4nsnc34)c(Cl)cc1S2
NCI/ADR-RES ovarian
  GI50: 16.2 µM
  TGI: 34.1 µM
SK-MEL-5 melanoma
  GI50: 26.4 µM
  TGI: 98.1 µM
SR leukemia
  GI50: 29.1 µM
  TGI: > 100 µM
BT-549 breast
  GI50: > 100 µM
  TGI: > 100 µM
RXF 393 renal
  GI50: 12.9 µM
  TGI: 29.4 µM
EKVX NSCLC
  GI50: 46.8 µM
  TGI: > 100 µM
K-562 leukemia
  GI50: 40.8 µM
  TGI: > 100 µM
HOP-92 NSCLC
  GI50: 18.3 µM
  TGI: 50.4 µM
SK-MEL-28 melanoma
  GI50: 19.8 µM
  TGI: 42.6 µM
KM12 colon
  GI50: 17.6 µM
  TGI: 33.4 µM
HS 578T breast
  GI50: 24.5 µM
  TGI: 63.3 µM
M14 melanoma
  GI50: 52.2 µM
  TGI: > 100 µM
HCT-116 colon
  GI50: 20.1 µM
  TGI: 35.6 µM
MOLT-4 leukemia
  GI50: 45.1 µM
  TGI: > 100 µM
LOX IMVI melanoma
  GI50: 32.9 µM
  TGI: > 100 µM
CAKI-1 renal
  GI50: 16.8 µM
  TGI: 30.9 µM
NCI-H23 lung
  GI50: 18 µM
  TGI: 32.8 µM
PC-3 prostate
  GI50: 20.1 µM
  TGI: 38.9 µM
HOP-62 NSCLC
  GI50: 20.1 µM
  TGI: 35.8 µM
SK-MEL-2 melanoma
  GI50: 44.2 µM
  TGI: > 100 µM
UO-31 renal
  GI50: 22.9 µM
  TGI: 51.8 µM
MALME-3M melanoma
  GI50: 13.9 µM
  TGI: 40.9 µM
ACHN renal
  GI50: 27.8 µM
  TGI: 85.5 µM
NCI-H226 lung
  GI50: 17.3 µM
  TGI: 34.2 µM
OVCAR-8 ovarian
  GI50: 33.6 µM
  TGI: > 100 µM
SF-268 CNS
  GI50: 22.5 µM
  TGI: 55.6 µM
NCI-H522 lung
  GI50: 47.6 µM
  TGI: > 100 µM
MCF7 breast
  GI50: 16.4 µM
  TGI: 32.2 µM
HL-60(TB) leukemia
  GI50: 24.7 µM
  TGI: > 100 µM
SNB-19 CNS
  GI50: 27.2 µM
  TGI: 60.8 µM
RPMI-8226 leukemia
  GI50: 17.4 µM
  TGI: 39.7 µM
U251 CNS
  GI50: 31.6 µM
  TGI: > 100 µM
SF-295 CNS
  GI50: 22.8 µM
  TGI: 49.3 µM
SW-620 colon
  GI50: 19.1 µM
  TGI: 37.2 µM
HT29 colon
  GI50: 32.3 µM
  TGI: 93.8 µM
HCT-15 colon
  GI50: 38.1 µM
  TGI: > 100 µM
A498 renal
  GI50: 13.8 µM
  TGI: 34.8 µM
UACC-257 melanoma
  GI50: 19.1 µM
  TGI: 38.3 µM
DU-145 prostate
  GI50: 25.5 µM
  TGI: 67.9 µM
NCI-H460 lung
  GI50: 18 µM
  TGI: 37.7 µM
SF-539 CNS
  GI50: 23.4 µM
  TGI: 50.2 µM
A549 NSCLC
  GI50: 46.9 µM
  TGI: > 100 µM
UACC-62 melanoma
  GI50: 17.1 µM
  TGI: 32.9 µM
COLO 205 colon
  GI50: 23 µM
  TGI: 54.6 µM
MDA-MB-435
  GI50: 22.4 µM
  TGI: 56.5 µM
TK-10 renal
  GI50: 19.8 µM
  TGI: 40 µM
OVCAR-4 ovarian
  GI50: 27.8 µM
  TGI: 75.4 µM
OVCAR-3 ovarian
  GI50: 16.2 µM
  TGI: 30.2 µM
SK-OV-3 ovarian
  GI50: > 100 µM
  TGI: > 100 µM
T-47D breast
  GI50: 11.5 µM
  TGI: 31.9 µM
OVCAR-5 ovarian
  GI50: 54 µM
  TGI: > 100 µM
SNB-75 CNS
  GI50: 25.6 µM
  TGI: 62.3 µM
IGROV1 ovarian
  GI50: 31.2 µM
  TGI: > 100 µM
MDA-MB-231 breast
  GI50: 12.4 µM
  TGI: 30.3 µM
786-0 renal
  GI50: > 100 µM
  TGI: > 100 µM
SN12C renal
  GI50: 25.3 µM
  TGI: 58.5 µM
